Test results taken from patent publication US20190151283A1, “NON-STEROIDAL SELECTIVE GLUCOCORTICOID RECEPTOR AGONISTIC MODULATORS (SEGRAMs) AND USES THEREOF” (ASSOCIATION POUR LA RECHERCHE À L'IGBMC (ARI), priority 2017, published 2019).

Key:
Type in all cases: in vivo, mouse
[1] = system: Balb/C mice; test: Dextran sodium sulfate (DSS)-induced ulcerative colitis; details: for pro-inflammatory genes overexpressed in DSS-induced ulcerative colitis (IL-1β, IL-6, IL-17a, IL-17f, TSLP, MMP13): colon, q-RT-PCR, D14; for colonic villus/crypt structure / mucosal and submucosal cell infiltration: i.p. 1 mg/kg on D11, D12, D13, H&E histology
Procedure: To investigate the anti-inflammatory activity of CpdX and CpdX-D3 on a Th17 ulcerative colitis, Balb/C mice were treated with 3% DSS in drinking water for 13 days, with or without an intraperitoneal administration of either Dex, CpdX, CpdX(eA), CpdX(eB), CpdX-D3, CpdX-D3(eA) or CpdX-D3(eB) (1 mg/kg of body weight) on D11, D12 and D13.
At D14, RNA transcripts were extracted from mouse colons. IL-1β, IL-6, IL-17a, IL-17f, TSLP and MMP13 transcripts were analyzed by q-RT-PCR. Colon samples were also harvested for histological analyses (with H&E staining).

[2] = system: B6 male mice; test: Bone formation after three-month treatment (micro-CT, WNT16 transcripts); details: s.c. 1 mg/kg daily, three months
Procedure: (§1) B6 male mice (8-week-old) were daily subjected for three months to either a subcutaneous injection of vehicle (NaCl 0.9%), Dex, CpdX, CpdX(eA), CpdX(eB), CpdX-D3, CpdX-D3(eA) or CpdX-D3(eB) (1 mg/kg body weight, diluted in NaCl 0.9%).
From each animal included in the experiments, one femur and the ipsilateral tibia were dissected and preserved in 70% ethanol for further bone microstructure analysis by micro-CT. The FX Quantum micro-CT scanner (Perkin Elmer) was used to perform measurements at the distal femur and midshaft tibia. All scans were performed with an isotropic voxel size of 10 μm, 160 μA tube current and 90 kV tube voltage.
Morphological 3D measurements were performed using the CTAn software (Bruker). Cortical bone parameters, which were measured in the tibia midshaft, included measures of the bone volume fraction as compared to the total volume, cortical thickness, total area, bone area and marrow area. The region of interest was selected from below the distal tibial crest and continued for 20 slices toward the proximal end of the tibia. Trabecular bone parameters were measured in the distal metaphysis of the femurs and included bone volume fraction, trabecular thickness, trabecular number and trabecular spacing. The region of interest was selected from below the distal growth plate where the epiphyseal cap structure completely disappeared and continued for 100 slices toward the proximal end of the femur.
The statistical significance as compared to vehicle treatment was calculated through one-way ANOVA test followed by Dunn's multiple comparison test, *p<0.05; **p<0.01; ***p<0.001; ****p<0.0001.

[3] = system: B6 male mice; test: Fatty liver after three-month treatment; details: three months; for transcripts of fatty acid synthase (FASN) and Stearoyl-CoA desaturase 1 (SCD1) in liver: q-RT-PCR, 'but not' = no increase; for blood cholesterol and bile acids' levels: 'but not' = no clear increase
Procedure: B6 male mice (8-week-old) were daily subjected for three months to a subcutaneous injection of either vehicle (NaCl 0.9%), Dex, CpdX, CpdX(eA), CpdX(eB), CpdX-D3, CpdX-D3(eA) or CpdX-D3(eB) (1 mg/kg body weight, diluted in vehicle). Following this treatment, blood was collected at 10 a.m. by retro-orbital puncture in lithium-heparin coated vials. The plasmatic levels of total cholesterol and bile acids were determined.
Liver samples were harvested. […] RNA transcripts were extracted from liver samples and the transcripts of fatty acid synthase (FASN) and Stearoyl-CoA desaturase 1 (SCD1) genes were analyzed by q-RT-PCR.

[4] = system: Male mice (DBA-1 strain); test: Collagen-induced arthritis (CIA); details: for hind paw thickness at the ankle level: i.p. 1 mg/kg daily for 10 days (T0 to T10); for RNA transcripts of the pro-inflammatory genes expressed in the hind paws (IL-1β, IL-6, IL-17a, IL-17f, TNFα): q-RT-PCR, T10, 'but not' = not repressed
Procedure: Mice were treated with collagen to induce a Th17 rheumatoid arthritis-like inflammation as described by Inglis et al. (2007. Arthritis Res Ther. 9(5):R113) and Geboes et al. (2009. Arthritis Rheum. 60(2):390-5).
Male mice (DBA-1 strain) were subcutaneously-injected with 100 μg collagen per mouse on D0. The hind paw thickness at the ankle level was regularly measured with a caliper. When the ankle thickness had reached around 4 mm (T0, i.e., 30 to 50 days after the collagen injection on D0), mice were daily intraperitoneally-injected for 10 days (T0 to T10) with either vehicle (NaCl 0.9%), Dex, CpdX, CpdX(eA), CpdX(eB), CpdX-D3, CpdX-D3(eA) or CpdX-D3(eB) (1 mg/kg body weight diluted in NaCl 0.9%), and the hind paw thickness at the ankle level was daily measured with a caliper. Pictures of the hind paws were taken at days T0 and T10 (before and after the treatment with either Vehicle, Dex, CpdX, CpdX(eA), CpdX(eB), CpdX-D3, CpdX-D3(eA) or CpdX-D3(eB)), in order to assess the course of swelling.
RNA transcripts were extracted from whole hind paws of collagen-untreated and collagen-treated mice at T0 and T10. IL-1β, IL-6, IL-17a, IL-17f and TNFα transcripts were analyzed by q-RT-PCR.

[5] = system: B6 male mice; test: Organ weights (thymus, spleen, adrenal gland, kidney) after three-month treatment; details: s.c. 1 mg/kg daily, three months
Procedure: as §1, with “to” for “to either”, “of either” for “of”, “vehicle). Following these treatments, four organs (thymus, spleen, adrenal gland and kidney) were harvested and weighted.” for “NaCl 0.9%).”

[6] = system: B6 male mice; test: Insulin level, insulin tolerance test and liver insulin signalling after three-month treatment; details: for insulin resistance: three months, conclusion
Procedure: B6 male mice (8-week-old) were subjected daily for three months to a subcutaneous injection of either vehicle (NaCl 0.9%), Dex, CpdX, CpdX(eA), CpdX(eB), CpdX-D3, CpdX-D3(eA) or CpdX-D3(eB) (1 mg/kg body weight, diluted in vehicle). After three months, the blood was collected at 10 a.m. by retro-orbital puncture in lithium-heparin coated vials, and the plasmatic level of insulin was determined.
For the intraperitoneal insulin tolerance test (IPITT), mice were fasted for 6 hours before test. The blood glucose concentration was measured both before (T0) and during a one-hour period after insulin i.p. injection (0.75 U/kg body weight).
Following this three-month treatment, liver samples were harvested and lysed in the RIPA buffer (20 mM Tris pH 8, 150 mM NaCl, 10% glycerol, 1% NP-40 and 2 mM EDTA). Antibodies from Cell Signaling were used to assess by Western-Blotting the relative level of p-IRS1 (S318), IRS-1, p-AKT (S473) and AKT.

| Compound | pro-inflammatory genes overexpressed in DSS-induced ulcerative colitis (IL-1β, IL-6, IL-17a, IL-17f, TSLP, MMP13) [1] | colonic villus/crypt structure [1] | mucosal and submucosal cell infiltration [1] | bone formation in cortical and trabecular bones [2] | transcripts of fatty acid synthase (FASN) and Stearoyl-CoA desaturase 1 (SCD1) in liver [3] | blood cholesterol and bile acids' levels [3] | hind paw thickness at the ankle level ([4]; 1 mg/kg) | spleen weight [5] | thymus apoptosis / thymus found [5] | weight of the adrenal gland [5] | insulin resistance [6] | RNA transcripts of the pro-inflammatory genes expressed in the hind paws (IL-1β, IL-6, IL-17a, IL-17f, TNFα) [4] | lipid deposition in the liver ([3]; 5% Red oil staining of frozen sections) | hind paw thickness at the ankle level [4] | hind paw thickness, difference compared to the Dex treatment ([4]; student t test, FIG. 17 legend) | phosphorylated insulin receptor substrate 1 (p-IRS1 S318) in liver extracts ([6]; western-blot, 'but not' = no decrease) |
| --- | --- | --- | --- | --- | --- | --- | --- | --- | --- | --- | --- | --- | --- | --- | --- | --- |
| COc1ccc(F)cc1C(C)(C)CC(O)(CNc1ccc2c(c1)COC2=O)C(F)(F)F (single isomer, unassigned) [CpdX(eB), 5-[4-(5-fluoro-2-methoxyphenyl)-2-hydroxy-4-methyl-2-(trifluoromethyl)pentylamino]-isobenzofuran-1(3H)-one] | similarly repressed | almost reestablished | significantly decreased | did not affect | but not | but not | no such decrease | not decreased | did not result in any significant thymus apoptosis | increased | does not induce | – | – | – | – | – |
| [2H]C([2H])([2H])Oc1ccc(F)cc1C(C)(C)CC(O)(CNc1ccc2c(c1)COC2=O)C(F)(F)F (centres unmarked) [CpdX-D3(eA), 5-{4-[2-(methoxy-D3)-5-fluorophenyl]-2-hydroxy-4-methyl-2-(trifluoromethyl)pentylamino}isobenzofuran-1(3H)-one] | similarly repressed | almost reestablished | significantly decreased | did not affect | but not | but not | – | not decreased | did not result in any significant thymus apoptosis | increased | does not induce | similarly repressed | – | – | – | – |
| [2H]C([2H])([2H])Oc1ccc(F)cc1C(C)(C)CC(O)(CNc1ccc2c(c1)COC2=O)C(F)(F)F (centres unmarked) [CpdX-D3(eB), 5-{4-[2-(methoxy-D3)-5-fluorophenyl]-2-hydroxy-4-methyl-2-(trifluoromethyl)pentylamino}isobenzofuran-1(3H)-one] | similarly repressed | almost reestablished | significantly decreased | did not affect | but not | but not | no such decrease | not decreased | did not result in any significant thymus apoptosis | increased | does not induce | – | – | – | – | – |
| [2H]C([2H])([2H])Oc1ccc(F)cc1C(C)(C)CC(O)(CNc1ccc2c(c1)COC2=O)C(F)(F)F (racemic) [CpdX-D3, 5-{4-[2-(methoxy-D3)-5-fluorophenyl]-2-hydroxy-4-methyl-2-(trifluoro-methyl)pentylamino}isobenzofuran-1(3H)-one] | similarly repressed | almost reestablished | significantly decreased | did not affect | but not | but not | – | not decreased | did not result in any significant thymus apoptosis | increased | does not induce | similarly repressed | not observed | rapid decrease | not significant | but not |
| COc1ccc(F)cc1C(C)(C)CC(O)(CNc1ccc2c(c1)COC2=O)C(F)(F)F (single isomer, unassigned) [CpdX(eA), 5-[4-(5-fluoro-2-methoxyphenyl)-2-hydroxy-4-methyl-2-(trifluoromethyl)pentylamino]-isobenzofuran-1(3H)-one] | similarly repressed | almost reestablished | significantly decreased | did not affect | but not | but not | – | not decreased | did not result in any significant thymus apoptosis | increased | does not induce | similarly repressed | – | – | – | – |
